Measurements published in patent US7005430B2, “Fused purine derivatives” (Kyowa Hakko Kogyo Co., Ltd., priority 1999, dated 2006).

How the values were obtained:
MIN6 cell = test: Insulin secretion promoting activity for cultured β cells (MIN6); format: cell-based
Experimental: Culture of the MIN6 cells above and insulin secretion test utilizing the MIN6 cells were performed according to the methods described in Diabetologia, vol. 36, pp. 1139–1145, 1993. The effect of a compound on the insulin secretion in the presence of 14.5 mmol/L glucose was determined by measuring insulin amounts in cell culture supernatants collected as follows. MIN6 cells cultured on a 24-well plate were washed twice by using 1 mL of Buffer A (119 mmol/L sodium chloride, 4.74 mmol/L potassium chloride, 2.54 mmol/L calcium chloride, 1.19 mmol/L magnesium sulfate, 1.19 mmol/L potassium dihydrogenphosphate, 10 mmol/L 2-[4-(2-hydroxyethyl)-1-piperazinyl]ethanesulfonic acid, 0.1% bovine serum albumin, pH 7.3) containing 2 mmol/L glucose, and then were incubated in 1 mL of Buffer A containing 2 mmol/L glucose at 37° C. for 45 minutes. After the incubation, the culture supernatant was changed to Buffer A (0.9 mL) containing a test compound at various concentrations and 2 mmol/L glucose, and the cells were further incubated at 37° C. for 15 minutes. The MIN6 cells were stimulated with glucose by the addition of Buffer A (0.1 mL) containing 127 mmol/L glucose to the culture (final glucose concentration: 14.5 mmol/L). After the stimulation, the cells were further incubated at 37° C. for 45 minutes, and then the culture supernatant was collected.
Separately, the effect of a compound on the insulin secretion in the presence of 5 mmol/L glucose was determined by measuring insulin amounts in cell culture supernatants collected as follows. MIN6 cells cultured on a 24-well plate were washed twice by using 1 mL of Buffer A containing 5 mmol/L glucose, and then the culture supernatant was changed to Buffer A (0.9 mL) containing a test compound at various concentrations and 5 mmol/L glucose. Then, the cells were incubated at 37° C. for 45 minutes (final glucose concentration: 5 mmol/L), and the culture supernatant was collected.
After the culture supernatant was diluted with a phosphate buffer containing 1% bovine serum albumin, 0.1% Tween 20, 0.12% disodium ethylenediaminetetraacetate (EDTA) and 0.1% sodium azide, antibody-reactive insulin secreted in the culture supernatant was quantified by enzyme immunoassay or radio immunoassay. The insulin level was indicated as the amount of human insulin (ng/mL). The results are indicated as averages (avg) for 3 to 4 samples with standard erroe values (se).

Wistar male rats = test: Hyperglycemia suppressing action after glucose loading in normal rats; format: in vivo; conditions: 14 mg/kg po
Experimental: Wistar male rats (body weight: about 280 g) were used for the experiment after starvation for 24 hours. A test compound was orally administered to the rats 15 minutes before oral administration of glucose (2 g/kg). Blood was collected from a tail vein before the administration of the test compound and 30, 60, 120 and 180 minutes after the glucose loading, and blood glucose level was measured by using a simplified blood sugar level measuring apparatus.

dd mice = test: Acute toxicity test (minimum lethal dose); format: in vivo; conditions: po, mortality rate after seven days
Experimental: A test compound was orally administered to dd mice [male, body weight: 20±1 g (n=3)]. Mortality rate after seven days was measured to determine minimum lethal dose (MLD).

[1] = in the presence of 5 mmol/L of glucose, drug concentration 10 (mmol/L [sic]), None = 51.2
[2] = in the presence of 14.5 mmol/L of glucose, drug concentration 1.0 μmol/L, None = 148.4

melting point [°C]	SMILES	Insulin secretion amount (ng/ml) avg (MIN6 cell; [1]) [ng/mL]	Insulin secretion amount (ng/ml) avg (MIN6 cell; [2]) [ng/mL]	Plasma Glucose Concentration (Wistar male rats; 30 minutes after glucose loading (2 g/kg), Control 169 ± 7.2) [mg/dL]	Plasma Glucose Concentration (Wistar male rats; 60 minutes after glucose loading (2 g/kg), Control 167 ± 8.0) [mg/dL]	Plasma Glucose Concentration (Wistar male rats; 120 minutes after glucose loading (2 g/kg), Control 93 ± 4.5) [mg/dL]	Plasma Glucose Concentration (Wistar male rats; 180 minutes after glucose loading (2 g/kg), Control 83 ± 3.7) [mg/dL]	Plasma Glucose Concentration (Wistar male rats; time 0 (before administration of the test compound), Control 82 ± 3.7) [mg/dL]	minimum lethal dose (MLD) (dd mice)
171 to 174	CSC1=Nc2nc(C(C)(C)C)[nH]c2C2=N[C@H](Cc3ccccc3)CN12 [Compound 73, (R)-8-Benzyl-2-(tert-butyl)-7,8-dihydro-5-methylthio-1H-imidazo[2,1-i]purine]	63.3	176.6	–	–	–	–	–	–
220 to 222	CCOC1=Nc2nc(C(C)(C)C)[nH]c2C2=N[C@H](Cc3ccccc3)CN12 [Compound 70, (R)-8-Benzyl-2-(tert-butyl)-5-ethoxy-7,8-dihydro-1H-imidazo[2,1-i]purine]	57.0	174.9	–	–	–	–	–	–
–	CCCN1C(=O)N2C[C@@H](Cc3ccncc3)N=C2c2[nH]c(C3CCCC3)nc21 [Compound 2, (R)-2-Cyclopentyl-7,8-dihydro-8-(4-picolyl)-4-(n-propyl)-1H-imidazo[2,1-i]purin-5(4H)-one D-tartrate]	86.3	203.6	144 ± 6.6	156 ± 5.7	90 ± 5.7	82 ± 4.2	91 ± 2.1	not less than 500 mg/kg
